Test results reported in patent US20230278972A1, “SUBSTITUTED HALOALKYL SULFONANILIDE HERBICIDES” (FMC Corporation, priority 2020, published 2023).

Legend:
Assay type in all cases: in vivo
[1] = tested on: galium (catchweed bedstraw, Galium aparine); test: Test A postemergence, galium; settings: Postemergence, 0 to 100 scale (0 no effect, 100 complete control)
In short: (§1)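 Compounds in non-phytotoxic solvent with surfactant. Soil: loam/sand. Preemergence via directed soil spray after seeding; postemergence on seedlings 2–10 cm, one- to two-leaf.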

[2] = tested on: wheat (Triticum aestivum); test: Test A postemergence, wheat; settings: Postemergence, 0 to 100 scale (0 no effect, 100 complete control)
In short: as §1

corn (Zea mays) = test: Test A postemergence, corn; settings: Postemergence, 0 to 100 scale (0 no effect, 100 complete control)
In short: (§2)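 Whole-plant herbicidal screen in pots of loam blended with sand. Sprays used a surfactant-containing, non-phytotoxic solvent vehicle. Timing was preemergence soil-directed at planting or postemergence at the one- to two-leaf stage (2–10 cm).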

[3] = tested on: pigweed (Amaranthus retroflexus); test: Test A postemergence, pigweed; settings: Postemergence, 0 to 100 scale (0 no effect, 100 complete control)
In short: as §2

[4] = tested on: Ryegrass, Italian (Italian ryegrass, Lolium multiflorum); test: Test A postemergence, Ryegrass, Italian; settings: Postemergence, 0 to 100 scale (0 no effect, 100 complete control)
In short: as §2

[5] = tested on: barnyardgrass (Echinochloa crus-galli); test: Test A postemergence, barnyardgrass; settings: Postemergence, 0 to 100 scale (0 no effect, 100 complete control)
In short: as §1

[6] = tested on: barnyardgrass (Echinochloa crus-galli); test: Test A preemergence, barnyardgrass; settings: Preemergence; for Plant response rating, Barnyardgrass: 0 to 100 scale (0 no effect, 100 complete control)
In short: as §2

kochia (Bassia scoparia) [7] = test: Test A postemergence, kochia; settings: Postemergence, 0 to 100 scale (0 no effect, 100 complete control)
In short: as §2

[8] = tested on: Foxtail, Giant (giant foxtail, Setaria faberi); test: Test A preemergence, Foxtail, Giant; settings: Preemergence; for Plant response rating, Foxtail, Giant: 0 to 100 scale (0 no effect, 100 complete control); for Foxtail, Giant plant response rating: 125 g ai/ha, visual injury on 0 to 100 scale (0 no effect, 100 complete control), approximately 10 days
In short: as §2

[9] = tested on: Ryegrass, Italian (Italian ryegrass, Lolium multiflorum); test: Test A preemergence, Ryegrass, Italian; settings: Preemergence; for Plant response rating, Ryegrass, Italian: 0 to 100 scale (0 no effect, 100 complete control); for Ryegrass, Italian plant response rating: 125 g ai/ha, visual injury on 0 to 100 scale (0 no effect, 100 complete control), approximately 10 days
In short: as §2

[10] = tested on: ragweed (common ragweed, Ambrosia artemisiifolia); test: Test A postemergence, ragweed; settings: Postemergence, 0 to 100 scale (0 no effect, 100 complete control)
In short: as §2

[11] = tested on: pigweed (Amaranthus retroflexus); test: Test A preemergence, pigweed; settings: for Plant response rating, Pigweed: 0 to 100 scale (0 no effect, 100 complete control); for Pigweed plant response rating: 125 g ai/ha, visual injury on 0 to 100 scale (0 no effect, 100 complete control), approximately 10 days
Source text: Seeds of plant species selected from barnyardgrass (Echinochloa crus-galli), kochia (Bassia scoparia), ragweed (common ragweed, Ambrosia artemisiifolia), Ryegrass, Italian (Italian ryegrass, Lolium multiflorum), Foxtail, Giant (giant foxtail, Setaria faberi), and pigweed (Amaranthus retroflexus) were planted into a blend of loam soil and sand and treated preemergence with a directed soil spray using test chemicals formulated in a non-phytotoxic solvent mixture which included a surfactant. At the same time, plants selected from these weed species and also wheat (Triticum aestivum), corn (Zea mays), blackgrass (Alopecurus myosuroides), and galium (catchweed bedstraw, Galium aparine) were planted in pots containing the same blend of loam soil and sand and treated with postemergence applications of test chemicals formulated in the same manner. Plants ranged in height from 2 to 10 cm and were in the one- to two-leaf stage for the postemergence treatment. […] A dash (-) response means no test result.

[12] = tested on: blackgrass (Alopecurus myosuroides); test: Test A postemergence, blackgrass; settings: Postemergence, 0 to 100 scale (0 no effect, 100 complete control)
In short: as §2

[13] = tested on: Foxtail, Giant (giant foxtail, Setaria faberi); test: Test A postemergence, Foxtail, Giant; settings: Postemergence, 0 to 100 scale (0 no effect, 100 complete control)
In short: as §2

kochia (Bassia scoparia) [14] = test: Test A preemergence, kochia; settings: Preemergence; for Plant response rating, Kochia: 0 to 100 scale (0 no effect, 100 complete control); for Kochia plant response rating: 125 g ai/ha, visual injury on 0 to 100 scale (0 no effect, 100 complete control), approximately 10 days
In short: as §2

[15] = 1000 g ai/ha, visual injury, approx. 10 days
[16] = 125 g ai/ha, visual injury approx. 10 days
[17] = 500 g ai/ha, visual injury, approx. 10 days

## Cc1cc(C)c(C(=O)N2CCSCC2)cc1NS(=O)(=O)C(F)(F)F [Compound 12]
[1]; [15]
  Plant response rating, Galium: 90
[2]; [15]
  Plant response rating, Wheat: 60
Corn (Zea mays); [15]
  Plant response rating, Corn: 20
[3]; [15]
  Plant response rating, Pigweed: 80
[4]; [15]
  Plant response rating, Ryegrass, Italian: 90
[5]; [15]
  Plant response rating, Barnyardgrass: 80
[6]; 1000 g ai/ha
  Plant response rating, Barnyardgrass: 100
Kochia (Bassia scoparia) [7]; [15]
  Plant response rating, Kochia: 70
[8]; 1000 g ai/ha
  Plant response rating, Foxtail, Giant: 100
[9]; 1000 g ai/ha
  Plant response rating, Ryegrass, Italian: 100
[10]; [15]
  Plant response rating, Ragweed: 60
[11]; 1000 g ai/ha
  Plant response rating, Pigweed: 100
[12]; [15]
  Plant response rating, Blackgrass: 30
[13]; [15]
  Plant response rating, Foxtail, Giant: 90
Kochia (Bassia scoparia) [14]; 1000 g ai/ha
  Plant response rating, Kochia: 90

## Cc1cc(Br)c(NS(=O)(=O)C(F)(F)F)cc1C(=O)N1CCOCC1 [Compound 14]
[1]; [16]
  Plant response rating, Galium: 70
[1]; [17]
  Plant response rating, Galium: 80
[2]; [16]
  Plant response rating, Wheat: 30
[2]; [17]
  Plant response rating, Wheat: 70
Corn (Zea mays); [16]
  Plant response rating, Corn: 0
Corn (Zea mays); [17]
  Plant response rating, Corn: 20
[3]; [16]
  Plant response rating, Pigweed: 60
[3]; [17]
  Plant response rating, Pigweed: 90
[4]; [16]
  Plant response rating, Ryegrass, Italian: 0
[4]; [17]
  Plant response rating, Ryegrass, Italian: 30
[5]; [16]
  Plant response rating, Barnyardgrass: 40
[5]; [17]
  Plant response rating, Barnyardgrass: 80
[6]; 500 g ai/ha
  Plant response rating, Barnyardgrass: 90
Kochia (Bassia scoparia) [7]; [16]
  Plant response rating, Kochia: 40
Kochia (Bassia scoparia) [7]; [17]
  Plant response rating, Kochia: 70
[8]
  Foxtail, Giant plant response rating: 70
[8]; 500 g ai/ha
  Plant response rating, Foxtail, Giant: 80
[9]
  Ryegrass, Italian plant response rating: 60
[9]; 500 g ai/ha
  Plant response rating, Ryegrass, Italian: 100
[10]; [16]
  Plant response rating, Ragweed: 60
[10]; [17]
  Plant response rating, Ragweed: 70
[11]
  Pigweed plant response rating: 80
[11]; 500 g ai/ha
  Plant response rating, Pigweed: 90
[12]; [16]
  Plant response rating, Blackgrass: 10
[12]; [17]
  Plant response rating, Blackgrass: 40
[13]; [16]
  Plant response rating, Foxtail, Giant: 40
[13]; [17]
  Plant response rating, Foxtail, Giant: 70
Kochia (Bassia scoparia) [14]
  Kochia plant response rating: 70
Kochia (Bassia scoparia) [14]; 500 g ai/ha
  Plant response rating, Kochia: 90

## Cc1ccc(C(=O)N2CCC(C(F)(F)F)CC2)cc1NS(=O)(=O)C(F)(F)F [Compound 263]
[1]; [15]
  Plant response rating, Galium: 60
[2]; [15]
  Plant response rating, Wheat: 0
Corn (Zea mays); [15]
  Plant response rating, Corn: 20
[3]; [15]
  Plant response rating, Pigweed: 0
[4]; [15]
  Plant response rating, Ryegrass, Italian: 80
[5]; [15]
  Plant response rating, Barnyardgrass: 30
[6]; 1000 g ai/ha
  Plant response rating, Barnyardgrass: 30
Kochia (Bassia scoparia) [7]; [15]
  Plant response rating, Kochia: 10
[8]; 1000 g ai/ha
  Plant response rating, Foxtail, Giant: 70
[9]; 1000 g ai/ha
  Plant response rating, Ryegrass, Italian: 50
[10]; [15]
  Plant response rating, Ragweed: 0
[11]; 1000 g ai/ha
  Plant response rating, Pigweed: 60
[12]; [15]
  Plant response rating, Blackgrass: 20
[13]; [15]
  Plant response rating, Foxtail, Giant: 0
Kochia (Bassia scoparia) [14]; 1000 g ai/ha
  Plant response rating, Kochia: 20

## Cc1cc(Cl)c(NS(=O)(=O)C(F)(F)F)cc1C(=O)N(C)C [Compound 23]
[1]; [16]
  Plant response rating, Galium: 80
[1]; [17]
  Plant response rating, Galium: 90
[2]; [16]
  Plant response rating, Wheat: 50
[2]; [17]
  Plant response rating, Wheat: 70
Corn (Zea mays); [16]
  Plant response rating, Corn: 20
Corn (Zea mays); [17]
  Plant response rating, Corn: 70
[3]; [16]
  Plant response rating, Pigweed: 70
[3]; [17]
  Plant response rating, Pigweed: 80
[4]; [16]
  Plant response rating, Ryegrass, Italian: 30
[4]; [17]
  Plant response rating, Ryegrass, Italian: 80
[5]; [16]
  Plant response rating, Barnyardgrass: 50
[5]; [17]
  Plant response rating, Barnyardgrass: 70
[6]; 125 g ai/ha, visual injury on 0 to 100 scale (0 no effect, 100 complete control), approximately 10 days
  Barnyardgrass plant response rating: 90
[6]; 500 g ai/ha
  Plant response rating, Barnyardgrass: 100
Kochia (Bassia scoparia) [7]; [16]
  Plant response rating, Kochia: 40
Kochia (Bassia scoparia) [7]; [17]
  Plant response rating, Kochia: 70
[8]
  Foxtail, Giant plant response rating: 70
[8]; 500 g ai/ha
  Plant response rating, Foxtail, Giant: 100
[9]
  Ryegrass, Italian plant response rating: 40
[9]; 500 g ai/ha
  Plant response rating, Ryegrass, Italian: 100
[10]; [16]
  Plant response rating, Ragweed: 80
[10]; [17]
  Plant response rating, Ragweed: 80
[11]
  Pigweed plant response rating: 80
[11]; 500 g ai/ha
  Plant response rating, Pigweed: 100
[12]; [16]
  Plant response rating, Blackgrass: 30
[12]; [17]
  Plant response rating, Blackgrass: 30
[13]; [16]
  Plant response rating, Foxtail, Giant: 50
[13]; [17]
  Plant response rating, Foxtail, Giant: 90
Kochia (Bassia scoparia) [14]
  Kochia plant response rating: 80
Kochia (Bassia scoparia) [14]; 500 g ai/ha
  Plant response rating, Kochia: 80
